Laboratory results published in patent publication US20220267281A1, “UNSATURATED HETEROCYCLOALKYL AND HETEROAROMATIC ACYL HYDRAZONE LINKERS, METHODS AND USES THEREOF” (priority 2019, published 2022).

Tested on: SKOV3 ovarian cells
Assay: Cytotoxicity of ADCs against SKOV3 cell lines (viable cells by ATP content, CellTiter-Glo)
Type: cell-based
Details: SKOV3 ovarian cancer cells, 3 to 5 days incubation with ADC, % survival curve fit
Description: The cytotoxic activity of Trastuzumab ADCs of Formula (IV) was tested against SKOV3 ovarian cell lines
SKOV3 ovarian cells were incubated with the effectors for a period corresponding to 2 to 3 times their estimated doubling time and the amount of viable cells was determine by measuring ATP content in the wells. […] All ADCs were diluted in DPBS to 6× the highest concentration tested, followed by 10 3-fold serial dilutions in DPBS for a total of 11 concentration points. Each point was added to triplicate wells. DPBS was added in wells to measure the maximum growth. Cells were diluted at their appropriate seeding density (ranging from 150 to 1000 cells per well) in complete media supplemented with glutamine 2 mM, serum and antibiotic cocktail. […] Total ATP was measured using CellTiter-Glo™ reagent from Promega as recommended by the supplier. […] Signal output was measured on a luminescence plate reader (Envision™, Perkin Elmer) set at an integration time of 0.1 sec. […]
Each concentration point (S) was normalized to the negative control wells (NC) and expressed as % survival (NC-S/NC×100). Potency (IC50) and efficacy were calculated from a non-linear curve fit of the points versus log of the concentrations without constrain on the slope. Refined data were analysed using Prism™ software.

## Synagis-SMCC-DM1: negative control ADC
  IC50: 4.01 nM
